ChEMBL document CHEMBL4483862, “Open-source discovery of chemical leads for next-generation chemoprotective antimalarials” (2018)

System: Plasmodium berghei
Experiment: Luciferase/luciferin-expressing antifolate-resistant parasites were used to infect a culture of HepG2 cells that were pre-incubated with compounds. Infected hepatocytes emit light due to the luciferase reaction. Assay results are presented as the percent inhibition of light emission compared to control. […]
Assay type: functional
Conditions: sporozoite; for IC90: read-out: LUCIFERASE INFECTION ASSAY - IC90

| SMILES | IC90 | other results |
| --- | --- | --- |
| Cc1ccc(C(=O)Nc2nc(-c3ccccn3)cs2)cc1S(=O)(=O)N1CCOCC1 | 9.81 µM | IC50 (HEPG2TOX_HILL_SLOPE 1.67, HEPG2TOX_R_SQUARED 0.851, PBLUC_HILL_SLOPE 9.71, PBLUC_R_SQUARED 0.0304, read-out: LUCIFERASE INFECTION ASSAY - IC50): 7.83 µM |
| COc1ccc(-c2csc3ncnc(Sc4nnc(-c5cccc(C)c5)n4CC(N)=O)c23)cc1 | 2.23 µM | IC50 (HEPG2TOX_HILL_SLOPE 1.67, 2.83, HEPG2TOX_R_SQUARED 0.956, 0.971, PBLUC_HILL_SLOPE 8.88, 0.995, PBLUC_R_SQUARED 0.771, 0.637, read-out: LUCIFERASE INFECTION ASSAY - IC50): 0.702 µM |
| CNc1snc(C)c1C(=O)NCc1csc(-c2ccccc2)n1 | 4.69 µM | IC50 (HEPG2TOX_HILL_SLOPE 1.65, HEPG2TOX_R_SQUARED 0.956, PBLUC_HILL_SLOPE 1.96, PBLUC_R_SQUARED 0.757, read-out: LUCIFERASE INFECTION ASSAY - IC50): 1.53 µM |
| CNc1nc2cnc(Nc3cccc(Cl)c3)cc2n1Cc1ccco1 | > 10 µM | IC50 (HEPG2TOX_HILL_SLOPE 1.66, HEPG2TOX_R_SQUARED 0.976, PBLUC_HILL_SLOPE 2.05, PBLUC_R_SQUARED 0.683, read-out: LUCIFERASE INFECTION ASSAY - IC50): 3.63 µM |
| COc1ccc(NS(=O)(=O)c2cc(NC(=O)c3ccsc3)ccc2Cl)cc1 | 0.419 µM | IC50 (HEPG2TOX_HILL_SLOPE 1.65, HEPG2TOX_R_SQUARED 0.932, PBLUC_HILL_SLOPE 10.6, PBLUC_R_SQUARED 0.586, read-out: LUCIFERASE INFECTION ASSAY - IC50): 0.34 µM |
| N#C/C(=N\Nc1cccc(C(F)(F)F)c1)C(=O)C1CC1 | 10.7 µM | IC50 (HEPG2TOX_HILL_SLOPE 1.67, HEPG2TOX_R_SQUARED 0.925, PBLUC_HILL_SLOPE 4.09, PBLUC_R_SQUARED 0.467, read-out: LUCIFERASE INFECTION ASSAY - IC50): 6.27 µM |
| COc1ccc(C(=O)NN(C)c2nc3ccccc3nc2C(F)(F)F)cc1 | 4.32 µM | IC50 (HEPG2TOX_HILL_SLOPE 1.65, HEPG2TOX_R_SQUARED 0.987, PBLUC_HILL_SLOPE 2.07, PBLUC_R_SQUARED 0.843, read-out: LUCIFERASE INFECTION ASSAY - IC50): 1.49 µM |
| COc1ccc(-n2nc(C)c3c2NC(=O)CC3c2ccc3c(c2)OCO3)cc1 (configuration not stated) | > 8.74 µM | IC50 (HEPG2TOX_HILL_SLOPE 1.66, HEPG2TOX_R_SQUARED 0.931, PBLUC_HILL_SLOPE 1.06, PBLUC_R_SQUARED 0.555, read-out: LUCIFERASE INFECTION ASSAY - IC50): 1.33 µM |
| CCNc1ccc(S(=O)(=O)C(F)(F)F)cc1NC(=O)/C=C/c1ccc(OC)c(OC)c1 | > 10 µM | IC50 (HEPG2TOX_HILL_SLOPE 1.67, 1.94, HEPG2TOX_R_SQUARED 0.906, 0.973, PBLUC_HILL_SLOPE 2.77, PBLUC_R_SQUARED 0.318, read-out: LUCIFERASE INFECTION ASSAY - IC50): 7.07 µM |
| Cc1nn(Cc2ccccc2)c(Cl)c1C(=O)Nc1nnc(-c2ccccc2)o1 | 4.08 µM | IC50 (HEPG2TOX_HILL_SLOPE 1.65, HEPG2TOX_R_SQUARED 0.7, PBLUC_HILL_SLOPE 2.41, 3.47, PBLUC_R_SQUARED 0.702, 0.681, read-out: LUCIFERASE INFECTION ASSAY - IC50): 1.84 µM |
| CC(=O)c1c(C)[nH]c(C(=O)OCC(=O)/C=C2\N(C)c3ccccc3C2(C)C)c1C | > 10 µM | IC50 (HEPG2TOX_HILL_SLOPE 1.65, HEPG2TOX_R_SQUARED 0.38, PBLUC_HILL_SLOPE 17.8, PBLUC_R_SQUARED 0.202, read-out: LUCIFERASE INFECTION ASSAY - IC50): 9.63 µM |
| CC(C)C(Nc1ccc(C(F)(F)F)cc1Cl)C(=O)Nc1ccc(-n2cncn2)nc1 (configuration not stated) | > 10 µM | IC50 (HEPG2TOX_HILL_SLOPE 1.66, HEPG2TOX_R_SQUARED 0.94, PBLUC_HILL_SLOPE 0.872, PBLUC_R_SQUARED 0.779, read-out: LUCIFERASE INFECTION ASSAY - IC50): 2.14 µM |
| CC(C)c1cccc(NS(=O)(=O)c2c[nH]c(C(=O)N3CCCC3)c2)c1 | > 10 µM | IC50 (HEPG2TOX_HILL_SLOPE 1.65, HEPG2TOX_R_SQUARED 0.259, read-out: LUCIFERASE INFECTION ASSAY - IC50): > 10 µM |
| Cc1ccc(-n2c(C)cc(C(=O)COC(=O)c3[nH]nc4ccccc34)c2C)cc1 | > 10 µM | IC50 (HEPG2TOX_HILL_SLOPE 1.65, HEPG2TOX_R_SQUARED 0.879, read-out: LUCIFERASE INFECTION ASSAY - IC50): > 10 µM |
| CCn1c2ccccc2c2cc(NC(=O)C3CCCN(c4ncccn4)C3)ccc21 (configuration not stated) | 2.28 µM | IC50 (HEPG2TOX_HILL_SLOPE 1.64, HEPG2TOX_R_SQUARED 0.977, PBLUC_HILL_SLOPE 1.41, PBLUC_R_SQUARED 0.865, read-out: LUCIFERASE INFECTION ASSAY - IC50): 0.477 µM |
| COc1cccc(-c2nc(-c3ccc(O)cc3O)cs2)c1OC | > 10 µM | IC50 (HEPG2TOX_HILL_SLOPE 1.65, HEPG2TOX_R_SQUARED 0.767, read-out: LUCIFERASE INFECTION ASSAY - IC50): > 10 µM |

| SMILES | IC90 | other results |
| --- | --- | --- |
| O=C(c1ccco1)N1CCc2nc(NCc3cccc(Oc4ccccc4)c3)ncc2C1 | 2.99 µM | IC50 (HEPG2TOX_HILL_SLOPE 1.64, HEPG2TOX_R_SQUARED 0.989, PBLUC_HILL_SLOPE 13.2, PBLUC_R_SQUARED 0.473, read-out: LUCIFERASE INFECTION ASSAY - IC50): 2.53 µM |
| O=C1CSC(=N/N=C2\SC(CC(=O)Nc3ccc(Br)cc3)C(=O)N2Cc2ccco2)N1 (configuration not stated) | > 10 µM | IC50 (HEPG2TOX_HILL_SLOPE 1.67, HEPG2TOX_R_SQUARED 0.878, PBLUC_HILL_SLOPE 0.95, PBLUC_R_SQUARED 0.607, read-out: LUCIFERASE INFECTION ASSAY - IC50): 5.04 µM |
| Cc1cc(O)cc2c1C(=O)/C(=C/c1cc(Cl)cc3c1OCOC3)O2 | > 9.57 µM | IC50 (HEPG2TOX_HILL_SLOPE 1.65, HEPG2TOX_R_SQUARED 0.863, PBLUC_HILL_SLOPE 8.6, PBLUC_R_SQUARED 0.504, read-out: LUCIFERASE INFECTION ASSAY - IC50): 8.66 µM |
| CC(NC(=O)Cc1ccc(-c2ccccc2)cc1)c1cccs1 (configuration not stated) | 9.4 µM | IC50 (HEPG2TOX_HILL_SLOPE 1.66, HEPG2TOX_R_SQUARED 0.927, PBLUC_HILL_SLOPE 1.26, PBLUC_R_SQUARED 0.823, read-out: LUCIFERASE INFECTION ASSAY - IC50): 1.64 µM |
| COc1cc(/C=C(\C#N)c2ccc(C)cc2)cc(OC)c1OC | 4.54 µM | IC50 (HEPG2TOX_HILL_SLOPE 1.64, HEPG2TOX_R_SQUARED 0.962, PBLUC_HILL_SLOPE 4.59, PBLUC_R_SQUARED 0.528, read-out: LUCIFERASE INFECTION ASSAY - IC50): 2.82 µM |
| Cc1cc(C)n(-c2ccc(CN3c4ccc(S(N)(=O)=O)cc4CC3C)cc2)n1 (configuration not stated) | 1.54 µM | IC50 (HEPG2TOX_HILL_SLOPE 1.67, HEPG2TOX_R_SQUARED 0.825, PBLUC_HILL_SLOPE 15.8, PBLUC_R_SQUARED 0.537, read-out: LUCIFERASE INFECTION ASSAY - IC50): 1.34 µM |
| CCOc1ccc(CCC2CCN(C(=O)Cn3c(=O)[nH]c(=O)c4ccccc43)CC2)cc1 | > 10 µM | IC50 (HEPG2TOX_HILL_SLOPE 1.65, HEPG2TOX_R_SQUARED 0.957, PBLUC_HILL_SLOPE 2.43, PBLUC_R_SQUARED 0.244, read-out: LUCIFERASE INFECTION ASSAY - IC50): 5.37 µM |
| COc1cccc(Nc2ncc(C(=O)c3cccc(-c4cccnc4)c3)[nH]2)c1 | 0.376 µM | IC50 (HEPG2TOX_HILL_SLOPE 1.65, HEPG2TOX_R_SQUARED 0.891, PBLUC_HILL_SLOPE 14.3, PBLUC_R_SQUARED 0.795, read-out: LUCIFERASE INFECTION ASSAY - IC50): 0.322 µM |
| COc1ccc(-c2cc(NS(=O)(=O)c3cccc(F)c3)n(-c3ccc(Cl)c(Cl)c3)n2)cc1 | > 6.7 µM | IC50 (HEPG2TOX_HILL_SLOPE 1.65, HEPG2TOX_R_SQUARED 0.946, PBLUC_HILL_SLOPE 2.05, PBLUC_R_SQUARED 0.116, read-out: LUCIFERASE INFECTION ASSAY - IC50): 2.95 µM |
| COc1ccc(CNc2nc3cnc(Nc4cccc(Cl)c4)cc3n2C)cc1OC | 3.92 µM | IC50 (HEPG2TOX_HILL_SLOPE 1.65, HEPG2TOX_R_SQUARED 0.962, PBLUC_HILL_SLOPE 14.9, PBLUC_R_SQUARED 0.209, read-out: LUCIFERASE INFECTION ASSAY - IC50): 3.38 µM |
| Cc1cc(NC(=O)c2cc(-c3ccc(Br)cc3)nc3ccccc23)n(-c2ccc([N+](=O)[O-])cc2)n1 | 1.17 µM | IC50 (HEPG2TOX_HILL_SLOPE 1.65, HEPG2TOX_R_SQUARED 0.917, PBLUC_HILL_SLOPE 13.2, PBLUC_R_SQUARED 0.485, read-out: LUCIFERASE INFECTION ASSAY - IC50): 0.991 µM |
| CCOc1ccc(S(=O)(=O)N(Cc2nnc(-c3cccs3)o2)c2ccccc2OC)cc1 | > 10 µM | IC50 (HEPG2TOX_HILL_SLOPE 1.67, HEPG2TOX_R_SQUARED 0.357, PBLUC_HILL_SLOPE 2.18, PBLUC_R_SQUARED 0.1, read-out: LUCIFERASE INFECTION ASSAY - IC50): 6.59 µM |
| COc1ccc(CC(=O)N2CCN(C)c3nc4ccccc4nc32)cc1F | 9.57 µM | IC50 (HEPG2TOX_HILL_SLOPE 1.64, HEPG2TOX_R_SQUARED 0.943, PBLUC_HILL_SLOPE 1.87, PBLUC_R_SQUARED 0.437, read-out: LUCIFERASE INFECTION ASSAY - IC50): 2.96 µM |
| COc1ccc(N(CC(=O)Nc2ccc(Cl)cc2Cl)S(=O)(=O)c2cccs2)cc1 | 3.69 µM | IC50 (HEPG2TOX_HILL_SLOPE 1.66, HEPG2TOX_R_SQUARED 0.962, PBLUC_HILL_SLOPE 19.1, PBLUC_R_SQUARED 0.554, read-out: LUCIFERASE INFECTION ASSAY - IC50): 3.29 µM |
| Cn1ccnc1C(=O)NNc1ncc(C(F)(F)F)cc1Cl | 1.21 µM | IC50 (HEPG2TOX_HILL_SLOPE 1.64, HEPG2TOX_R_SQUARED 0.948, PBLUC_HILL_SLOPE 15.2, PBLUC_R_SQUARED 0.698, read-out: LUCIFERASE INFECTION ASSAY - IC50): 1.04 µM |
